Assay [1] deals with MUC1×HLA-A2 transgenic mice. In words: IFN-γ ELISpot on splenocytes of MUC1×HLA-A2 transgenic mice immunised with peptide-pulsed DC. Type of assay: in vivo, mouse. To be noted: for recognition of all peptides higher than MUC1-8: MUC1×HLA-A2 transgenic mice. Here is the method: (§1) C57BL/6 (H-2^b) or MUC1×HLA-A2 (H-2^b/H-2^d/HLA-A2) transgenic 6-8 week old mice were used. Bone marrow cells from C57BL/6 or MUC1×HLA-A2 female mice were cultured at 1×10^6 cells/ml in tissue culture media, supplemented with 10 ng/ml GM-CSF/IL-4. At day 6, cells were washed, re-suspended in the same culture media and 20 μg/ml peptides were loaded on DCs for 3 hr. Pulsed DC were washed and 100 μl (1-2×10^6 cells) injected intradermally in female mice into the base of tail. After 14 days mice were boosted and 16 days later splenocytes assessed by ELISpot.
(§2) To assess peptide specific IFN-γ production by CD8^+ T cells to each peptide, splenocytes from immunised mice were used in IFN-γ ELISpot assays. Spleen cells were incubated with 10^−5-10^−10 M of each MUC1 peptide, irrelevant peptide (OVA8, […]; SEQ ID NO: 8) or internal positive control concanavalin A (ConA) for 18 hr at 37° C., 8% CO2 on nitrocellulose plates [pre-coated with an anti-murine IFN-γ monoclonal antibody]. Plates were developed as previously described.

Assay [2] addresses T1, MHC class I, H-2K^b on RMA-S cells (Mus musculus, UniProt P01901).
T1 construct: MHC class I molecules in the murine cell line RMA-S; endogenous in cells; host or cells: RMA-S (murine, C57BL/6, TAP2-deficient)
T1 sequence (P01901 22-369): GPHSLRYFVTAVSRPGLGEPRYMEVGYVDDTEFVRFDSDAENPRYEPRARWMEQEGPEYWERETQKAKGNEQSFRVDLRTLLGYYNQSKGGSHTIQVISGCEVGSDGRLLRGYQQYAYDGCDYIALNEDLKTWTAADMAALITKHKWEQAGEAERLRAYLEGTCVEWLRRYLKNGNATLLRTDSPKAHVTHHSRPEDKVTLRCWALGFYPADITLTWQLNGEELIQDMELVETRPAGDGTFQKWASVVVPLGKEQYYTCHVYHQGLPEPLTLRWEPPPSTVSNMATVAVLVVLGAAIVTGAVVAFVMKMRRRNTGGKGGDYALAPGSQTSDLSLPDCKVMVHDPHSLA
T1 sequence (P01887 21-119 partner): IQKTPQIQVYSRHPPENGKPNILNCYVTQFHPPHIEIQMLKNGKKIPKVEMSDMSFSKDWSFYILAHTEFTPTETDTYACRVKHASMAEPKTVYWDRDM
The assay is described as follows: Peptide stabilisation assay using RMA-S cells (FACScan). Type of assay: cell-based, murine. The note with it: TAP2-deficient RMA-S cells at 26° C. Here is the method: MHC class I molecules in the murine cell line RMA-S (C57BL/6 TAP2-deficient cells) can be used to measure the direct binding of peptides to class I molecules in vitro. RMA-S cells (5×10^5 cells) were incubated with peptides (10^−4-10^−13 M) at 26° C. for 3 hr then transferred to 37° C. for 30 min. After washing with 0.5% BSA/PBS (2 ml), anti-H-2K^b (HB-158) IgG2a as supernatant (1/50 dilution, 100 μl) was added to RMA-S peptide loaded cells and incubated for 45 minutes at 4° C. The cells were washed once again and 100 μl (1:500 dilution) of FITC-conjugated sheep (Fab′)2 anti-mouse immunoglobulin was added and incubated for 45 min at 4° C.; after further washing, cells were analyzed by FACScan.

Assay [3] has as its target T2, soluble H-2K^b (Mus musculus, UniProt P01901).
T2 construct: heavy chain residues 1-274 with C-terminal His-tag and β2-microglobulin residues 1-99; His-tag (C); made in house; host or cells: Drosophila melanogaster cells
T2 sequence (P01901 22-295): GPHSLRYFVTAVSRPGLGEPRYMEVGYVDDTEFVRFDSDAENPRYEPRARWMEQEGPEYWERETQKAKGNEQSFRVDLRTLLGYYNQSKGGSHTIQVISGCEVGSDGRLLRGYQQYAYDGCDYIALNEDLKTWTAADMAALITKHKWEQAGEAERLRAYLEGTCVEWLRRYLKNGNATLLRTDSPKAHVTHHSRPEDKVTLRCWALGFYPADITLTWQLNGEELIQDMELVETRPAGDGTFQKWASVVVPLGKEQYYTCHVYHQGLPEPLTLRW
T2 sequence (P01887 21-119 partner): T1 sequence (P01887 21-119 partner)
In words: Affinity measurements for binding of peptides to soluble H-2K^b (inhibition assay). To be noted: for increase in peptide affinity compared to MUC1-8 (competition studies): discussion, temperature not stated. Here is the method:
The soluble extracellular domains of H-2K^b (heavy chain […]-terminal His-tag and β2-microglobulin […]. melanogaster cells, under the control of a metallothionein promoter as previously described. Briefly, D. melanogaster cells were expanded to large scale (up to 6 L) in serum free Insect Xpress® media (Cambrex Corporation, East Rutherford, N.J., United States of America) and CuSO4 (625 μM final concentration) was added 3-5 days before harvesting to induce expression of H-2K^b. The supernatant was concentrated using a […] tangential flow concentrator (PALL Corporation, East Hills, N.Y., United States of America) using a 10 kDa MWCO membrane (PALL) and then loaded onto an Ni-NTA column and eluted using 10-250 mM imidazole buffer gradient, pH 7.5. […] Affinity measurements for binding of peptides to soluble H-2K^b molecules were performed as previously described.

Assay [4] deals with C57BL/6 mice. The assay is described as follows: IFN-γ ELISpot on splenocytes of C57BL/6 mice immunised with peptide-pulsed DC. It counts as in vivo, mouse. As for the experimental part: as §1, §2
For assay [5], the target named is HLA-A2 (Homo sapiens, UniProt P04439, D140Y/D185E/D98H/E176V/E277Q/G131W/G231S/I119V/I121R/I166T/I218V/L10V/L300P/L318F/N151K/N90K/P208A/P217A/Q86G/Q94H/R138H/R169H/T345S). The note with it: cited from earlier work.
For assay [6], the system named is MCF7 cells (human MUC1^+ breast cancer cell line). To be noted: HLA-A2 transgenic mice; previous studies [59]; cited from earlier work.
The test system is the same in assay [7]. The assay is described as follows: Standard 51Cr CTL assay after immunisation of HLA-A2/K^b transgenic mice. It counts as in vivo, mouse. The note with it: HLA-A2 transgenic mice immunised with peptide-KLH-oxidised mannan. As for the experimental part: Peptide was coupled to KLH via glutaraldehyde. In brief, 2 mg KLH in 1 ml phosphate buffer saline (PBS) and 2 mg peptide in 1 ml PBS were mixed and added dropwise to 1 ml of 0.75% glutaraldehyde, and reacted overnight at room temperature. Glutaraldehyde is a bi-functional coupling reagent that links two compounds through their amino groups.
14 mg mannan was dissolved in 1 ml sodium phosphate buffer (pH 6), followed by the addition of 100 μl 0.1 M sodium periodate (dissolved in pH 6 phosphate buffer) and incubated on ice for 1 hour in the dark. 10 μL ethanediol was then added to the mixture and incubated for a further 30 mins on ice. The resultant mixture (oxidised mannan) was passed through a PD-10 column (Sephadex G-25 M column) pre-equilibrated in pH 9.0 phosphate buffer, to exclude out sodium periodate and ethanediol. Oxidised mannan (7 mg/ml) was eluted with 2 ml of pH 9 phosphate buffer, to which 1 mg peptide-KLH was added and allowed to react overnight at room temperature in the dark. Conjugation occurs via Schiff base formation between free amino groups of KLH and oxidised mannan. Samples were used without further purification. […]
HLA-A2/K^b transgenic mice were immunised with 5 μg of peptide intraperitoneally on days 0, 10, 17 and 7-10 days later CTL responses were measured using standard CTL assay as previously described.

The mark [8] stands for this setting: 4° C., means of 5 values, SE 10-15%, read-out: KD 4° C.
Setting [9] is: 23° C., means of 5 values, SE 10-15%, read-out: KD 23° C.
Where [10] appears, read: 37° C., means of 5 values, SE 10-15%, read-out: KD 37° C.

These results are taken from patent publication US20090317414A1, “CANCER VACCINE COMPRISING A MUCIN 1 (MUC1) T CELL EPITOPE-DERIVED PEPTIDE” (4G VACCINES PTY LTD, priority 2006, published 2009).

Like-named read-outs stand apart in the source and are kept apart here. No end group written: not given here. A value given as a limit tells only on which side of the number the result lay.

Regarding SAPDFRPA [MUC1-8-5F], the “recognition of all peptides higher than MUC1-8” value in assay [1] amounted to 10 fold. In addition, in assay [2], the “peptide concentration at which H-2K^b was stabilised” value is recorded as > 10^−7 M. For the same compound, the Kd amounted to 460 nM in assay [3] (setting [8]), 130 nM in assay [3] (setting [9]) and 4900 nM in assay [3] (setting [10]). In assay [3] (at 23° C. and 37° C.), the “increased peptide affinity by mutation of MUC1-8” value (from here on “increased peptide affinity”) is “at least 7 fold”. For the same compound, in assay [3], the “increase in peptide affinity compared to MUC1-8 (competition studies)” value (shortened to “increase in peptide affinity”) is recorded as 7 fold.

For `CC[C@H](C)[C@H](NC(=O)[C@@H](NC(=O)[C@@H](N)CO)[C@@H](C)CC)C(=O)N[C@@H](CC(N)=O)C(=O)N[C@@H](Cc1ccccc1)C(=O)N[C@@H](CCC(=O)O)C(=O)N[C@@H](CCCCN)C(=O)N[C@@H](CC(C)C)C(=O)O` [OVA8, reference compound], the Kd in assay [3] (setting [8]) was found to be 6 nM; in assay [3] (setting [9]), 10 nM.

Regarding SAPDFRPL [MUC1-8-5F8L], the “T cell response by IFN-γ ELISpot, in words” value in assay [1] (MUC1×HLA-A2 transgenic mice (MUC1-8 is self)) is “generated even higher affinity T cells which recognised all peptides”; in assay [4] (C57BL/6 mice), “the number of sfu/500,000 was higher”. Further, in assay [4] (after immunisation, mouse strain not given), the precursor frequency is recorded as 400 sfu/500,000 cells. Also, the “peptide concentration at which H-2K^b was stabilised” value in assay [2] is listed as > 10^−9 M. Moreover, the results for the Kd in assay [3] (setting [8]), in assay [3] (setting [9]) and in assay [3] (setting [10]) were 160 nM, 60 nM and 300 nM, respectively. In addition, in assay [3] (at 23° C.), the “increased peptide affinity” value turned out to be 14 fold. Also, the “increase in peptide affinity” value in assay [3] worked out at 14 fold.

Consider `CC(C)C[C@H](NC(=O)CNC(=O)[C@H](CCC(N)=O)NC(=O)[C@H](Cc1ccc(O)cc1)NC(=O)[C@@H](NC(=O)[C@H](Cc1ccc(O)cc1)NC(=O)CNC(=O)[C@@H](N)CCCNC(=N)N)C(C)C)C(=O)O` [VSV8, reference compound], for which the Kd in assay [3] (KD 4° C.) is 34 nM; in assay [3] (KD 23° C.), 27 nM; in assay [3] (KD 37° C.), 163 nM.

With STAPPAHGV (listed as Homo sapiens), the “binding affinity to HLA-A2, in words” value in assay [5] is reported as “low-medium affinity”.

On to SAPDTRPL [MUC1-8-8L], for which the “recognition of all peptides higher than MUC1-8” value in assay [1] was determined as 10 fold. Besides, the “peptide concentration at which IFN-γ secreting T cells recognised all peptides” value in assay [4] (C57BL/6 mice immunised with peptide-pulsed DC) is 10^−9-10^−5 M. The “peptide concentration at which H-2K^b was stabilised” value in assay [2] is given as > 10^−6 M. The Kd in assay [3] (setting [8]) was determined as 150 nM; in assay [3] (setting [9]) it was 250 nM; in assay [3] (setting [10]) it was 8900 nM. In addition, the “increased peptide affinity” value in assay [3] (at 23° C. and 37° C.) is listed as “at least 3 fold”. Also, in assay [3], the “increase in peptide affinity” value turned out to be 3 fold.

For “DLHWASWV-KLH-oxidised mannan: mimic mutant peptide DLHWASWV conjugated to KLH and oxidised mannan, used as control (also: conjugated to KLH and oxidised mannan)”, the “CTL lysis of MCF7 cells, in words” value in assay [6] is listed as “able to specifically lyse MCF7 cells”.

Regarding SAPDTRPA [MUC1-8, reference compound], the Kd is 433 nM in assay [3] (setting [8]); 430 nM in assay [3] (4° C., read-out: affinity measured in an inhibition assay); 877 nM in assay [3] (setting [9]); 870 nM in assay [3] (23° C., read-out: affinity measured in an inhibition assay); 37000 nM in assay [3] (setting [10]).

For “TTAPPVHGL-KLH-oxidised mannan: peptide TTAPPVHGL coupled to KLH via glutaraldehyde and then to oxidised mannan (also: conjugated to KLH, conjugated to oxidised mannan)”, in assay [7], the “CTL lysis of MCF7 cells, in words” value was “able to specifically lyse MCF7 cells”.

On to “TTAPPVHGL (Artifical sequence derived from human or mouse MUC1 T cell epitope)”, for which, in assay [7], the “CTL lysis of MCF7 cells, in words” value is given as “lysed MCF7 cells similarly to STAPPAHGV”.
